Laboratory results taken from ChEMBL document CHEMBL3853358, “Concise SAR Exploration Based on the "Head-to-Tail" Approach: Discovery of PI4KIIIα Inhibitors Bearing Diverse Scaffolds” (ACS Med Chem Lett, 2016).

Experiments:
[1] = organism: Homo sapiens; assay: Selectivity ratio of IC50 for human Flag-tagged PI4K3beta expressed in insect cells to IC50 for human Flag-tagged PI4K3alpha expressed in insect cells
[2] = system: Hepatitis C virus; assay: Antiviral activity against HCV genotype 1b Con1 infected in human Huh5-2 cells co-expressing subgenomic HCV replicon NS3 assessed as reduction in viral replication after 2 days by luciferase reporter gene assay; assay type: functional, cell-based, Hepacivirus hominis; conditions: genotype 1b Con1, Huh-5-2, 48 h
[3] = Inhibition of human Flag-tagged PI4K3alpha expressed in insect cells preincubated with enzyme followed by PS:PI substrate and ATP addition measured after 60 mins by HTRF Transcreener ADP assay
[4] = Inhibition of human Flag-tagged PI4K3beta expressed in insect cells preincubated with enzyme followed by PS:PI substrate and ATP addition measured after 60 mins by HTRF Transcreener ADP assay
[5] = Inhibition of human Flag-tagged PI4K3alpha expressed in insect cells preincubated with enzyme followed by PS:PI substrate and ATP addition measured after 60 mins by ADP-Glo kinase assay
[6] = Inhibition of human Flag-tagged PI4K3beta expressed in insect cells preincubated with enzyme followed by PS:PI substrate and ATP addition measured after 60 mins by ADP-Glo kinase assay
[7] = target: Phosphatidylinositol 4,5-bisphosphate 3-kinase catalytic subunit alpha isoform (Homo sapiens, UniProt P42336); assay: Inhibition of PI3Kalpha (unknown origin) preincubated prior addition of PIP2 as substrate and ATP measured after 30 mins by HTRF assay
[8] = target: Phosphatidylinositol 4,5-bisphosphate 3-kinase catalytic subunit beta isoform (Homo sapiens, UniProt P42338); assay: Inhibition of PI3Kbeta (unknown origin) preincubated prior addition of PIP2 as substrate and ATP measured after 30 mins by HTRF assay
[9] = system: Hepatitis C virus; assay: Antiviral activity against HCV genotype […] Con1 infected in human Huh5-2 cells co-expressing subgenomic HCV replicon NS3 assessed as reduction in viral replication after 2 days by luciferase reporter gene assay; assay type: functional, cell-based, Hepacivirus hominis, genotype 1b Con1; conditions: Huh-5-2, 48 h
[10] = Metabolic stability in rat liver microsomes assessed as compound remaining at 5 uM measured up to 60 mins; assay type: ADME; conditions: read-out: Stability
[11] = Metabolic stability in human liver microsomes assessed as compound remaining at 5 uM measured up to 60 mins; assay type: ADME; conditions: read-out: Stability
[12] = Terminal half life in CD(Sprague-Dawley) rat at 0.3 mg/kg, iv administered as single dose; assay type: ADME, organism-based; conditions: in vivo, read-out: beta t1/2 (converted)
[13] = Total clearance in CD(Sprague-Dawley) rat at 0.3 mg/kg, iv administered as single dose measured up to 25 hrs; assay type: ADME, organism-based; conditions: in vivo
[14] = Volume of distribution at steady state in CD(Sprague-Dawley) rat at 0.3 mg/kg, iv administered as single dose measured up to 25 hrs; assay type: ADME, organism-based; conditions: in vivo, read-out: Vdss
[15] = AUC (0 to infinity) in CD(Sprague-Dawley) rat at 1 mg/kg, po administered as single dose measured up to 25 hrs; assay type: ADME, organism-based; parameters: dose 1 mg/kg, route oral, time infinity; conditions: in vivo
[16] = MRT in CD(Sprague-Dawley) rat at 1 mg/kg, po administered as single dose; assay type: ADME, organism-based; conditions: in vivo
[17] = Oral bioavailability in CD(Sprague-Dawley) rat at 1 mg/kg administered as single dose measured up to 25 hrs; assay type: ADME, organism-based; conditions: in vivo

Sequence of Phosphatidylinositol 4,5-bisphosphate 3-kinase catalytic subunit beta isoform (P42338 whole entry, canonical isoform): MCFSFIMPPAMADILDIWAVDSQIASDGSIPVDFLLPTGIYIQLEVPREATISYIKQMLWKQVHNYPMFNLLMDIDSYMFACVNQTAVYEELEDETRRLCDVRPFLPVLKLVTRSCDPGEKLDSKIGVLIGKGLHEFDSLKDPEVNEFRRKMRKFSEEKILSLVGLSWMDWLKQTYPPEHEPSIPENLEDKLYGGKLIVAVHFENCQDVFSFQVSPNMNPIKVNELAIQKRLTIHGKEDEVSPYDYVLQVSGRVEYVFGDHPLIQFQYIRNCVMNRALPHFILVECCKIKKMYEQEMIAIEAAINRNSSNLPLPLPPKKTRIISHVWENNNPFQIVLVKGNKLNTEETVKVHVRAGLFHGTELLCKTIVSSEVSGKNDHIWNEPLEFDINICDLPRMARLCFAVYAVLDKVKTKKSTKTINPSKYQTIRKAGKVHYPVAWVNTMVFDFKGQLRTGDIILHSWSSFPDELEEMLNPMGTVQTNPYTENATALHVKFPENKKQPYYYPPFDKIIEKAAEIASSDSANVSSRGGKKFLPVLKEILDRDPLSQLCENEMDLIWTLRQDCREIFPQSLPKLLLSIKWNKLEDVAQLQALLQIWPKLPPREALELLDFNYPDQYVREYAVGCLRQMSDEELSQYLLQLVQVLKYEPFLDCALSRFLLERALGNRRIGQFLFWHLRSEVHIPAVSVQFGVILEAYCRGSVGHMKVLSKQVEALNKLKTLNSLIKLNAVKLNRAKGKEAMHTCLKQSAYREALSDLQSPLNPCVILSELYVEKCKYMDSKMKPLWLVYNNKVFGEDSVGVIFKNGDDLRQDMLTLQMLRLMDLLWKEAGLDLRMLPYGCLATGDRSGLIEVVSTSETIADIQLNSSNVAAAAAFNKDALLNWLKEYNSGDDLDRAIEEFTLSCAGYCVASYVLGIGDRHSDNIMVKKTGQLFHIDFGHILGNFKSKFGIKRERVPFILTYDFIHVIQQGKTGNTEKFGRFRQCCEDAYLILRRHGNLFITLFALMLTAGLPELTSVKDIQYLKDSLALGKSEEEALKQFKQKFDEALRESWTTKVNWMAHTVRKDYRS
Sequence of Phosphatidylinositol 4,5-bisphosphate 3-kinase catalytic subunit alpha isoform (P42336 whole entry, canonical isoform): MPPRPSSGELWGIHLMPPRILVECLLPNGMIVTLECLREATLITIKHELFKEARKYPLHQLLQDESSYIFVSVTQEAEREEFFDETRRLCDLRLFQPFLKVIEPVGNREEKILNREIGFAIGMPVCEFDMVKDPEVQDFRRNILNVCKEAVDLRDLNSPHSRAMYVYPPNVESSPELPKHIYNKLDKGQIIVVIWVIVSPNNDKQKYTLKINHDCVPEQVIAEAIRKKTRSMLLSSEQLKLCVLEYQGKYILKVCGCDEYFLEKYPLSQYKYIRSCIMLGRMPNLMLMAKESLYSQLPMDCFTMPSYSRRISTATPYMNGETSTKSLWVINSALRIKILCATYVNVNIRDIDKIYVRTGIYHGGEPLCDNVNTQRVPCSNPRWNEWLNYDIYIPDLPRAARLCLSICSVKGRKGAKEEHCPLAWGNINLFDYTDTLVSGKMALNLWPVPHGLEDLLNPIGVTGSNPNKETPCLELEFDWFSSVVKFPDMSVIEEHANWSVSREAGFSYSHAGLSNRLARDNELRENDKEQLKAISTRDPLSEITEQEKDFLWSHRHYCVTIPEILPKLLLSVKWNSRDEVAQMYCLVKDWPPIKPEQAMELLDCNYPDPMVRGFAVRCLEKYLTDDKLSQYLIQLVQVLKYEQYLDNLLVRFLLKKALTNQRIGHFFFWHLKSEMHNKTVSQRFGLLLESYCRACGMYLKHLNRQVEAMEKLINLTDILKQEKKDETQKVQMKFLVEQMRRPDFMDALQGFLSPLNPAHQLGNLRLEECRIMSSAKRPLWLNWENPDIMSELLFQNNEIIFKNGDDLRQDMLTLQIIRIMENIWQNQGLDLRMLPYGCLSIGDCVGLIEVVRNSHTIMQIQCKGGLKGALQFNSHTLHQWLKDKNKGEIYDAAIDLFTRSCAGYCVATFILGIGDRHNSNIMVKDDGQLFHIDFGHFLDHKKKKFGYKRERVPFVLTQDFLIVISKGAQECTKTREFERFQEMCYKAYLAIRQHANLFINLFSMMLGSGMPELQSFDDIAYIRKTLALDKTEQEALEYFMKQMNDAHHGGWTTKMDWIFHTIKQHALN

Row | Compound | EC50 [2] [µM] | Ratio IC50 [1] | IC50 [3] [µM] | IC50 [4] [µM] | also measured
1 | COCc1ncc(-c2ccc3ncn(-c4ccccc4)c(=O)c3c2)cc1NS(=O)(=O)c1ccc(F)cc1F | 0.02 | 1200 | – | – | IC50 [5]: 0.0041 µM; IC50 [6]: 4.9 µM
2 | COCc1ncc(-c2ccc3nn(C)c(C4=CCOCC4)c3c2)cc1NS(=O)(=O)c1ccc(F)cc1F | 0.05 | 32 | 0.0031 | 0.098 | –
3 | COC(C)c1ncc(-c2ccc3ncn(-c4ccccc4)c(=O)c3c2)cc1NS(=O)(=O)c1ccc(F)cc1F (racemic) | 0.4 | > 3000 | – | – | IC50 [5]: 0.1 µM; IC50 [6]: > 30 µM
4 | COCCn1cnc2ccc(-c3cnc(COC4CC4)c(NS(=O)(=O)c4ccc(F)cc4F)c3)cc2c1=O | 0.0068 | 710 | 0.00031 | 0.22 | IC50 [7]: 0.24 µM; IC50 [8]: 1.4 µM; EC50 [9]: 0.01 µM; remaining at 1 h, 5 µM [10]: 91%; remaining at 1 h, 5 µM [11]: 104%; half-life [12]: 3.3 h; clearance [13]: 0.667 mL/min/kg; Vd [14]: 0.2 L/kg; AUC(0-inf) [15]: 42 µM·h; MRT [16]: 5.5 h; bioavailability [17]: 91%
5 | COCc1ncc(-c2ccc3ncc(=O)n(-c4ccccc4)c3c2)cc1NS(=O)(=O)c1ccc(F)cc1F | 0.041 | 640 | 0.0022 | 1.4 | –
6 | COCCn1cnc2ccc(-c3cnc(COC)c(NS(=O)(=O)c4ccc(F)cc4F)c3)cc2c1=O | 0.013 | 130 | 0.001 | 0.13 | –
7 | COc1ncc(-c2ccc3ncn(-c4ccccc4)c(=O)c3c2)cc1S(=O)(=O)Nc1ccc(F)cc1F | 0.099 | > 160 | – | – | IC50 [5]: 0.19 µM; IC50 [6]: > 30 µM
8 | COCc1ncc(-c2c3ccc(C4CCOCC4)cc3nn2C)cc1NS(=O)(=O)c1ccc(F)cc1F | 0.031 | 53 | 0.0057 | 0.3 | –
9 | COc1ncc(-c2ccc3ncn(-c4ccccc4)c(=O)c3c2)cc1NS(=O)(=O)c1ccc(F)cc1F | – | 56 | – | – | IC50 [5]: 0.014 µM; IC50 [6]: 0.78 µM

Further lines, with some results ahead:

Row | EC50 [2] [µM] | Compound | Ratio IC50 [1] | IC50 [3] [µM] | IC50 [4] [µM] | also measured
10 | 0.088 | COCc1ncc(-c2ccc3ncn(CCS(C)(=O)=O)c(=O)c3c2)cc1NS(=O)(=O)c1ccc(F)cc1F | 100 | 0.0016 | 0.16 | –
11 | 0.78 | COCc1ncc(-c2ccn3nnc(-c4ccccc4)c3c2)cc1NS(=O)(=O)c1ccc(F)cc1F | > 110 | 0.093 | > 10 | –
12 | 1 | COCc1ncc(-c2ccc3nnn(-c4ccccc4)c3c2)cc1NS(=O)(=O)c1ccc(F)cc1F | 74 | 0.05 | 3.7 | –
13 | 0.61 | COCc1ncc(-c2ccc3nn(C)c(-c4ccccc4)c3c2)cc1NS(=O)(=O)c1ccc(F)cc1F | 22 | 0.0091 | 0.2 | –
14 | 0.081 | COCc1ncc(-c2ccc3ncn(CCO)c(=O)c3c2)cc1NS(=O)(=O)c1ccc(F)cc1F | 260 | 0.0025 | 0.66 | –
15 | 0.078 | COCc1ncc(-c2c3ccc(C4=CCOCC4)cc3nn2C)cc1NS(=O)(=O)c1ccc(F)cc1F | 58 | 0.016 | 0.92 | –
16 | 0.88 | COCc1ncc(-c2ccc3ncn(-c4ccccc4)c3c2)cc1NS(=O)(=O)c1ccc(F)cc1F | 32 | 0.013 | 0.41 | –
17 | 0.068 | COCc1ncc(-c2ccc3ncc(-c4ccccc4)c(=O)n3c2)cc1NS(=O)(=O)c1ccc(F)cc1F | 1030 | 0.008 | 8.2 | –
18 | 0.029 | COCc1ncc(-c2ccc3nn(C)c(C4CCOCC4)c3c2)cc1NS(=O)(=O)c1ccc(F)cc1F | 20 | 0.002 | 0.039 | –
19 | 0.7 | COCc1ncc(-c2c3ccc(-c4ccccc4)cc3nn2C)cc1NS(=O)(=O)c1ccc(F)cc1F | 96 | 0.26 | 18 | –
20 | 0.01 | CCCn1cnc2ccc(-c3cnc(COC)c(NS(=O)(=O)c4ccc(F)cc4F)c3)cc2c1=O | 120 | 0.0019 | 0.23 | –
21 | > 30 | COc1ncc(-c2ccc3ncn(-c4ccccc4)c(=O)c3c2)cc1CS(=O)(=O)c1ccc(F)cc1F | > 30 | – | – | IC50 [5]: > 1 µM; IC50 [6]: > 30 µM
